Data: the supplement of paper PMC10307832

Columns and labels:
Assay in all cases: relative viability (nuclei count vs DMSO), 5 days (fraction); higher = more cells survive
Bexarotene + Trametinib = compound: C=C(c1ccc(C(=O)O)cc1)c1cc2c(cc1C)C(C)(C)CCC2(C)C [Bexarotene] + CC(=O)Nc1cccc(-n2c(=O)n(C3CC3)c(=O)c3c(Nc4ccc(I)cc4F)n(C)c(=O)c(C)c32)c1 [Trametinib] (partner 0.02 µM)
Method in brief: (§1)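 Relative viability was taken as the ratio of nuclei in treated wells to nuclei in vehicle wells. Lung cancer cell lines in 1536-well plates received compounds by pin tool one day after seeding, either one drug alone or a fixed anchor-drug dose plus five library-drug doses (not always all listed) in √10 steps. Nuclei were counted on 4× images after 5 days of treatment, and values are medians of duplicate plates.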

Bexarotene + OSI-027 = compound: C=C(c1ccc(C(=O)O)cc1)c1cc2c(cc1C)C(C)(C)CCC2(C)C [Bexarotene] + COc1cccc2cc(-c3nc([C@H]4CC[C@H](C(=O)O)CC4)n4ncnc(N)c34)[nH]c12 [OSI-027] (partner 0.5 µM)
Method in brief: as §1

Bexarotene + Phenformin = compound: C=C(c1ccc(C(=O)O)cc1)c1cc2c(cc1C)C(C)(C)CCC2(C)C [Bexarotene] + N=C(N)NC(=N)NCCc1ccccc1 [Phenformin] (partner 250 µM)
Method in brief: as §1

Bexarotene + Crizotinib = compound: C=C(c1ccc(C(=O)O)cc1)c1cc2c(cc1C)C(C)(C)CCC2(C)C [Bexarotene] + C[C@@H](Oc1cc(-c2cnn(C3CCNCC3)c2)cnc1N)c1c(Cl)ccc(F)c1Cl [Crizotinib] (partner 1 µM)
Method in brief: as §1

| Cell Line | relative viability (Bexarotene + Trametinib; first compound 0.08 µM) | relative viability (Bexarotene + Trametinib; first compound 0.253 µM) | relative viability (Bexarotene + Trametinib; first compound 0.8 µM) | relative viability (Bexarotene + Trametinib; first compound 2.53 µM) | relative viability (Bexarotene + Trametinib; first compound 8 µM) | relative viability (Bexarotene + OSI-027; first compound 0.08 µM) | relative viability (Bexarotene + OSI-027; first compound 0.253 µM) | relative viability (Bexarotene + OSI-027; first compound 0.8 µM) | relative viability (Bexarotene + OSI-027; first compound 2.53 µM) | relative viability (Bexarotene + OSI-027; first compound 8 µM) | relative viability (Bexarotene + Phenformin; first compound 0.08 µM) | relative viability (Bexarotene + Phenformin; first compound 0.253 µM) | relative viability (Bexarotene + Phenformin; first compound 0.8 µM) | relative viability (Bexarotene + Phenformin; first compound 2.53 µM) | relative viability (Bexarotene + Phenformin; first compound 8 µM) | relative viability (Bexarotene + Crizotinib; first compound 0.08 µM) | relative viability (Bexarotene + Crizotinib; first compound 0.253 µM) | relative viability (Bexarotene + Crizotinib; first compound 0.8 µM) | relative viability (Bexarotene + Crizotinib; first compound 2.53 µM) | relative viability (Bexarotene + Crizotinib; first compound 8 µM) |
| --- | --- | --- | --- | --- | --- | --- | --- | --- | --- | --- | --- | --- | --- | --- | --- | --- | --- | --- | --- | --- |
| NCI-H322M | 0.578 | 0.443 | 0.534 | 0.501 | 0.508 | 0.698 | 0.351 | 0.637 | 0.585 | 0.623 | 0.969 | 0.825 | 0.814 | 0.775 | 0.789 | 0.829 | 1.06 | 0.87 | 0.93 | 1.04 |
| NCI-H358 | 0.134 | 0.12 | 0.111 | 0.119 | 0.123 | 0.764 | 0.774 | 0.685 | 0.798 | 0.633 | 0.48 | 0.396 | 0.372 | 0.33 | 0.39 | 0.541 | 0.603 | 0.497 | 0.66 | 0.49 |
| NCI-H441 | 0.568 | 0.481 | 0.669 | 0.527 | 0.633 | 0.763 | 0.67 | 0.645 | 0.585 | 0.672 | 1.03 | 0.743 | 0.811 | 0.864 | 0.868 | 0.742 | 0.708 | 0.94 | 0.635 | 0.738 |
| NCI-H460 | 0.153 | 0.155 | 0.13 | 0.199 | 0.177 | 0.844 | 0.727 | 0.704 | 0.701 | 0.618 | 0.552 | 0.543 | 0.494 | 0.455 | 0.427 | 0.91 | 1.1 | 0.908 | 0.845 | 0.766 |
| NCI-H520 | 0.668 | 0.63 | 0.742 | 0.662 | 0.643 | 0.238 | 0.207 | 0.276 | 0.222 | 0.241 | 0.643 | 0.485 | 0.514 | 0.445 | 0.417 | 0.989 | 0.735 | 0.649 | 0.775 | 0.659 |
| NCI-H596 | 0.862 | 0.876 | 0.654 | 0.762 | 0.802 | 0.859 | 0.69 | 0.704 | 0.708 | 0.634 | 0.811 | 0.743 | 0.747 | 0.828 | 0.776 | 1.05 | 1.01 | 0.871 | 0.973 | 1.05 |
| NCI-H647 | 0.663 | 0.46 | 0.335 | 0.433 | 0.44 | 0.636 | 0.627 | 0.601 | 0.573 | 0.624 | 0.588 | 0.472 | 0.519 | 0.53 | 0.43 | 1.38 | 1.18 | 1.19 | 1.12 | 0.912 |
| NCI-H650 | 1.17 | 0.957 | 1.02 | 0.972 | 0.957 | 0.516 | 0.521 | 0.523 | 0.485 | 0.494 | 0.486 | 0.518 | 0.472 | 0.39 | 0.439 | 0.749 | 0.613 | 0.739 | 0.615 | 0.6 |
| NCI-H661 | 0.58 | 0.523 | 0.544 | 0.543 | 0.495 | 0.631 | 0.665 | 0.647 | 0.623 | 0.635 | 0.314 | 0.296 | 0.261 | 0.283 | 0.272 | 0.866 | 1.13 | 1.02 | 0.96 | 1.04 |
| NCI-H727 | 0.377 | 0.362 | 0.293 | 0.382 | 0.292 | 0.63 | 0.657 | 0.478 | 0.465 | 0.612 | 0.51 | 0.481 | 0.574 | 0.515 | 0.503 | 0.856 | 0.912 | 0.87 | 0.677 | 0.708 |
| NCI-H838 | 0.551 | 0.611 | 0.545 | 0.657 | 0.585 | 0.443 | 0.391 | 0.465 | 0.47 | 0.554 | 0.585 | 0.595 | 0.504 | 0.608 | 0.634 | 0.929 | 0.884 | 0.891 | 0.843 | 0.866 |
| NCI-H1355 | 0.468 | 0.445 | 0.373 | 0.479 | 0.457 | 0.41 | 0.426 | 0.37 | 0.387 | 0.462 | 0.467 | 0.481 | 0.433 | 0.404 | 0.447 | 1.14 | 1.11 | 1.03 | 1.14 | 1.13 |
| NCI-H1437 | 0.552 | 0.508 | 0.488 | 0.482 | 0.459 | 0.985 | 0.819 | 1.01 | 0.89 | 0.982 | 0.307 | 0.327 | 0.301 | 0.392 | 0.32 | 0.92 | 0.959 | 0.918 | 0.922 | 0.909 |
| NCI-H1650 | 0.56 | 0.474 | 0.614 | 0.466 | 0.477 | 0.612 | 0.734 | 0.598 | 0.726 | 0.622 | 0.392 | 0.408 | 0.463 | 0.46 | 0.403 | 0.842 | 0.927 | 0.788 | 1.04 | 0.777 |
| NCI-H1651 | 0.861 | 0.867 | 0.884 | 0.875 | 0.827 | 0.843 | 0.717 | 0.71 | 0.702 | 0.744 | 0.446 | 0.318 | 0.307 | 0.357 | 0.345 | 0.936 | 0.89 | 0.952 | 0.968 | 0.893 |
| NCI-H1666 | 0.912 | 0.788 | 0.839 | 0.809 | 0.743 | 0.774 | 0.759 | 0.566 | 0.747 | 0.593 | 0.611 | 0.531 | 0.525 | 0.581 | 0.561 | 1.04 | 0.897 | 0.769 | 0.869 | 0.952 |
